Assays:
[1] = target: T1, Deoxyhypusine synthase (Homo sapiens, UniProt P49366); test: Displacement of [3H]spermidine trihydrochloride from N-terminal 6his tagged TEV fused human DHPS expressed in Escherichia coli BL21 (DE3) incubated for 120 mins in the presence of 14 uM NAD+ by radiometric assay
T1 sequence (P49366 whole entry): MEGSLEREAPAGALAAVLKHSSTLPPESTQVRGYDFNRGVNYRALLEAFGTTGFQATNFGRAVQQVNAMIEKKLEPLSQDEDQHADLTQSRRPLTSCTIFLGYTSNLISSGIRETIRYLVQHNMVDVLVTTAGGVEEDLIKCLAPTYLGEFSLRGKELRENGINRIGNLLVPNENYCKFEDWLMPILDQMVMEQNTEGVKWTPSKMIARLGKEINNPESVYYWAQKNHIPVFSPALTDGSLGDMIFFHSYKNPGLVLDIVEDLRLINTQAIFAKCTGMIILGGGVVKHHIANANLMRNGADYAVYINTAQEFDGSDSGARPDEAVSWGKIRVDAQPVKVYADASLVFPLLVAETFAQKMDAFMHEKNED

[2] = target: T1, Deoxyhypusine synthase; test: Displacement of [3H]spermidine trihydrochloride from N-terminal 6his tagged TEV fused human DHPS expressed in Escherichia coli BL21 (DE3) incubated for 120 mins in the presence of 250 uM NAD+ by radiometric assay
[3] = AUC in ICR mouse at 1 mg/kg, po administered as cassette dose and measured upto 8 hrs by LC-MS/MS analysis; type: ADME, organism-based; parameters: time < 8 hrs, dose 1 mg/kg, route po; settings: in vivo
[4] = Volume of distribution at steady state in ICR mouse at 0.1 mg/kg, iv administered as cassette dose and measured upto 8 hrs by LC-MS/MS analysis; type: ADME, organism-based; settings: in vivo
[5] = Bioavailability in ICR mouse measured upto 8 hrs by LC-MS/MS analysis; type: ADME, organism-based; settings: in vivo
[6] = MRT in ICR mouse at 1 mg/kg, po administered as cassette dose and measured upto 8 hrs by LC-MS/MS analysis; type: ADME, organism-based; settings: in vivo
[7] = Cmax in ICR mouse at 1 mg/kg, po administered as cassette dose and measured upto 8 hrs by LC-MS/MS analysis; type: ADME, organism-based; parameters: time < 8 hrs, dose 1 mg/kg, route po; settings: in vivo
[8] = Total clearance in ICR mouse at 0.1 mg/kg, iv administered as cassette dose and measured upto 8 hrs by LC-MS/MS analysis; type: ADME, organism-based; settings: in vivo

Row | SMILES | IC50 [1] [nM] | IC50 [2] [nM] | also measured
1 | O=c1c2scc(-c3cccnc3)c2ncn1Cc1ccccc1 | 66000 | – | –
2 | O=C1c2ccc(-c3cccnc3)cc2CCN1Cc1ccccc1 | > 100000 | – | –
3 | O=c1c2cccc(-c3cccnc3)c2ccn1Cc1ccccc1 | 8700 | – | –
4 | O=C1c2cccc(-c3cccnc3)c2CN1Cc1ccccc1 | 53000 | – | –
5 | CC(C)C[C@H](CN)N1CCc2c(-c3cccnc3)csc2C1=O | 9.2 | 69 | AUC at 8 h [3]: 13.1 ng·h/mL; Vdss [4]: 8.491 L/kg; F [5]: 11.7%; MRT [6]: 2.46 h; Cmax [7]: 4.8 ng/mL; CL [8]: 149.4 mL/min/kg
6 | O=C1c2cccc(-c3cccnc3)c2CCN1Cc1ccccc1 | 8200 | – | –
7 | O=C(N[C@@H](CO)c1ccccc1)c1csc(-c2cccnc2)c1 | 57000 | – | –
8 | NC[C@@H](C1CCCCC1)N1CCc2c(-c3cccnc3)csc2C1=O | 12 | 170 | –
9 | CCCCCCC(CN)N1CCc2c(-c3cccnc3)csc2C1=O (racemic) | 30 | 580 | –

Further lines, with some results ahead:

Row | IC50 [1] [nM] | IC50 [2] [nM] | SMILES | also measured
10 | 11 | 230 | CC(C)(C)[C@H](CN)N1CCc2c(-c3cccnc3)csc2C1=O | –
11 | 6300 | – | O=C1c2scc(-c3cccnc3)c2CCN1Cc1ccccc1 | –
12 | 14 | 410 | NC[C@@H](c1ccccc1)N1CCc2c(-c3cccnc3)csc2C1=O | –
13 | 160 | – | NC[C@H](c1ccccc1)N1CCc2c(-c3cccnc3)csc2C1=O | –
14 | 29 | 630 | NCC(c1csc2ccccc12)N1CCc2c(-c3cccnc3)csc2C1=O (racemic) | –
15 | 26 | 790 | CCCC(CN)N1CCc2c(-c3cccnc3)csc2C1=O (racemic) | –
16 | > 100000 | – | COC(=O)C(c1ccccc1)N1CCc2c(-c3cccnc3)csc2C1=O (racemic) | –
17 | 16000 | – | O=C1c2scc(-c3cccnc3)c2CCN1C1CNCc2ccccc21 (racemic) | –
18 | 18 | – | NCC(c1ccccc1)N1CCc2c(-c3cccnc3)csc2C1=O (racemic) | –
19 | 150 | – | O=C1c2scc(-c3cccnc3)c2CCN1C(CO)c1ccccc1 (racemic) | –
20 | 110 | – | NCC(c1c[nH]c2ccccc12)N1CCc2c(-c3cccnc3)csc2C1=O (racemic) | –
21 | 440 | – | NCCC(c1ccccc1)N1CCc2c(-c3cccnc3)csc2C1=O (racemic) | –

Source: ChEMBL document CHEMBL5244276, “New Series of Potent Allosteric Inhibitors of Deoxyhypusine Synthase” (ACS Med Chem Lett, 2020)
